Data from patent US10413581B2, “Combination, composition, and method of administering the combination or composition to animals” (Phibro Animal Health Corporation, priority 2014, dated 2019).

Columns and labels:
Type in all cases: in vivo
E. meleagrimitis = test: Example 10: oocysts per gram fecal material, E. meleagrimitis; details: Composition 250 ppm, Monensin 68 ppm, alone or combined
Experimental: (§1) In this examples the effect of a composition comprising Quillaja saponaria and Yucca schidigera in combination with Monensin was determined. In some embodiments, the composition was a commercial product sold under the trade name MAGNI-PHI by Phibro Animal Health Corporation. Four treatment regimens were used: a control with no medication; 250 ppm of the composition; 68 ppm Monensin; and 250 ppm composition in combination with 68 ppm Monensin.
(§2) On Days 14, 21, and 28 fresh fecal samples were collected from each pen. These representative samples were tested to determine the degree of coccidia oocysts per gram of litter, by determining oocysts shedding/cycling. Oocysts per gram were determined for each sample.

E. gallopavonis = test: Example 10: oocysts per gram fecal material, E. gallopavonis; details: Composition 250 ppm, Monensin 68 ppm, alone or combined
Experimental: as §1, §2

E. adenoeides = test: Example 10: oocysts per gram fecal material, E. adenoeides; details: Composition 250 ppm, Monensin 68 ppm, alone or combined
Experimental: as §1, §2

coccidia = test: Example 10: composition in combination with Monensin: performance, total coccidia oocysts per gram; details: Composition 250 ppm, Monensin 68 ppm, alone or combined; for Adj. FCR / Feed Intake / Wt. Gain: D 0-42
Experimental: as §1, §2

Structure (SMILES): CC[C@@]1([C@@H]2O[C@@H]([C@H]3O[C@@](O)(CO)[C@H](C)C[C@@H]3C)C[C@@H]2C)CC[C@H]([C@]2(C)CC[C@]3(C[C@H](O)[C@@H](C)[C@@H]([C@@H](C)[C@@H](OC)[C@H](C)C(=O)O)O3)O2)O1 [Monensin]
- Oocysts per gram fecal material E. mel. (E. meleagrimitis; D 14): 786b oocysts per gram
- Oocysts per gram fecal material E. mel. (E. meleagrimitis; D 21): 2549c oocysts per gram
- Oocysts per gram fecal material E. mel. (E. meleagrimitis; D 28): 74b oocysts per gram
- Oocysts per gram fecal material E. gallo. (E. gallopavonis; D 14): 430ab oocysts per gram
- Oocysts per gram fecal material E. gallo. (E. gallopavonis; D 21): 623a oocysts per gram
- Oocysts per gram fecal material E. gallo. (E. gallopavonis; D 28): 119a oocysts per gram
- Oocysts per gram fecal material E. aden. (E. adenoeides; D 14): 356ab oocysts per gram
- Oocysts per gram fecal material E. aden. (E. adenoeides; D 21): 237bc oocysts per gram
- Oocysts per gram fecal material E. aden. (E. adenoeides; D 28): 29b oocysts per gram
- Oocysts per gram fecal material Total (coccidia; D 14): 1571bc oocysts per gram
- Oocysts per gram fecal material Total (coccidia; D 21): 3409c oocysts per gram
- Oocysts per gram fecal material Total (coccidia; D 28): 252b oocysts per gram
- Adj. FCR (coccidia; Day 14): 1.473b
- Feed Intake (coccidia; Day 14): 20.04b
- Wt. Gain (coccidia; Day 14): 0.261a kg
- Adj. FCR (coccidia; Day 28): 1.562b
- Feed Intake (coccidia; Day 28): 51.81a
- Wt. Gain (coccidia; Day 28): 0.703a kg
- Adj. FCR (coccidia; Day 42): 1.707b
- Feed Intake (coccidia; Day 42): 124.77b
- Wt. Gain (coccidia; Day 42): 1.614bc kg
